# Laboratory results as given in patent US20020162794A1, “Anaerobic digestion” (priority 2001, published 2002).
# Where “and” joins values, the source holds several entries; their conditions need not be identical. Identical values can stand only once.
# Test system: mixed culture from a publicly owned anaerobic digester (domestic sewage sludge)
# Assay: Chemical Oxygen Demand (COD) of batch anaerobic digester reactors
# Conditions: for COD Concentration: 7/1/99 run (Tables 5, 6)
# Description: Two tests were run in which sodium formate in concentrations ranging from a few parts per million (ppm) up to ten percent (10%) on a mass basis were added to samples taken from a publicly owned anaerobic digester. The samples were first cultured in laboratory sized batch reactors. The twelve batch reactors were then sampled, and studied for periods of up to fifty-five days. The process variables that were monitored included COD (Chemical Oxygen Demand), TS (Total Solids), TVS (Total Volatile Solids) and the pH of the culture. Time and the initial sodium formate concentration level were the independent variables. Finally measurements were also made of the bacterial counts at the beginning and at the end of the fifty five day period. These experimental observations permitted partial identifications of the predominant bacterial colonies still viable in each of the twelve reactors used for each trial of the laboratory study.
# Chemical Oxygen Demand (COD) measurements
# To perform this measurement, a 5 ml of the sample from each of the 12 reactors is taken and diluted 10-fold to 50 ml. 5 ml of the now diluted sample is again diluted 10 fold to 50 ml. This double dilution represents a 100-fold dilution of the original sample. 2 ml of these diluted samples are put into standard COD test tubes. The test tubes are closed and shaken vigorously. The 13 (COD) test tubes (one is a control) are then heated to 150 deg. C for two hours. The UV spectrometer is calibrated by first analyzing the test tube with pure distilled water as the zero COD or control sample.
# The sample test tubes are then analyzed for COD using UV spectrometer after inputting the method number and adjusting the frequency of UV rays to correspond to a sample with a high organic loading range. The readings that were obtained in units of mg/liter are multiplied by 100 to correct for the dilution procedure and to get COD concentration level for the original sample. COD is indicative of the organic substrate load level in the wastewater being treated or tested.
# Municipal sludge from the city of Lubbock, Wastewater Treatment Plant was digested in 12 batch digesters. Using twelve batch reactors allowed the collection of control reactors data (i.e., no formate in the reactors) in triplicate, titration studies of increasing formate concentration, and duplicates/triplicates of varying formate concentration. Experiments were conducted in the laboratories of Texas Tech University.
# The substrate taken was 2 parts of 50 g/liter sucrose solution mixed with 1 part of digested municipal sludge which acts as the seed material for incorporation of microbes into the reactors. The experiments were started with the following protocol. [drawing 1]
compound,measurement,setting,value
O=C[O-].[Na+] [sodium formate],COD Concentration,"5000 ppm, 4 days",48.9 g/L
same,COD Concentration,"5000 ppm, 9 days",44.2 g/L
same,COD Concentration,"5000 ppm, 16 days",30.4 g/L
same,COD Concentration,"5000 ppm, 24 days",30.9 g/L
same,COD Concentration,"5000 ppm, 55 days",34.3 g/L
same,COD Concentration,"10000 ppm, 0 Day (with formate addition)",58.2 g/L and 69 g/L and 36.7 g/L
same,COD Concentration,"10000 ppm, 7 Day",56.4 g/L and 44.3 g/L
same,COD Concentration,"10000 ppm, 1 days, listed as Format",50.7 g/L and 52.3 g/L and 45.5 g/L
same,COD Concentration,"10000 ppm, 1 days, listed as Formate",45.5 g/L
same,COD Concentration,"10000 ppm, 4 days",47.3 g/L and 43.5 g/L and 43.2 g/L
same,COD Concentration,"10000 ppm, 9 days",49.9 g/L and 51.6 g/L and 43.7 g/L
same,COD Concentration,"10000 ppm, 16 days",38.2 g/L and 32 g/L and 40 g/L
same,COD Concentration,"10000 ppm, 24 days",40.8 g/L and 37.1 g/L and 40 g/L
same,COD Concentration,"10000 ppm, 55 days",49.7 g/L and 38.5 g/L and 32 g/L
same,COD Concentration,"100000 ppm, 0 Day (with formate addition)",49 g/L and 64.4 g/L
same,COD Concentration,"100000 ppm, 7 Day",74.9 g/L and 94.5 g/L
same,COD Concentration,"100000 ppm, 1 days, listed as Format",121 g/L and 165 g/L
same,COD Concentration,"100000 ppm, 1 days, listed as Formate",120.7 g/L and 165 g/L
same,COD Concentration,"100000 ppm, 4 days",65.5 g/L and 87.1 g/L
same,COD Concentration,"100000 ppm, 9 days",71 g/L and 89.6 g/L
same,COD Concentration,"100000 ppm, 16 days",57.5 g/L and 67.1 g/L
same,COD Concentration,"100000 ppm, 24 days",41.5 g/L and 25.6 g/L
same,COD Concentration,"100000 ppm, 55 days",64.8 g/L and 73.9 g/L
same,% (reduction of average COD versus 0 ppm),"7/1/99 run, 1000 ppm",0.72%
same,"COD Concentration, Average","7/1/99 run, 1000 ppm, average of 3 reactors, 0 Day",53.8 g/L
same,"COD Concentration, Average","7/1/99 run, 1000 ppm, average of 3 reactors, 7 Day",61.43 g/L
same,"COD Concentration, Average","7/1/99 run, 1000 ppm, average of 3 reactors, 1 days",58.3 g/L and 56.3 g/L
same,"COD Concentration, Average","7/1/99 run, 1000 ppm, average of 3 reactors, 4 days",51.9 g/L
same,"COD Concentration, Average","7/1/99 run, 1000 ppm, average of 3 reactors, 9 days",50.37 g/L
same,"COD Concentration, Average","7/1/99 run, 1000 ppm, average of 3 reactors, 16 days",36.03 g/L
same,"COD Concentration, Average","7/1/99 run, 1000 ppm, average of 3 reactors, 24 days",36.6 g/L
same,"COD Concentration, Average","7/1/99 run, 1000 ppm, average of 3 reactors, 55 days",38.87 g/L
same,% (reduction of average COD versus 0 ppm),"7/1/99 run, 5000 ppm",10.3%
same,"COD Concentration, average over all sampling days (Averag)","7/1/99 run, 5000 ppm, 0 to 55 days",43.5 g/L
same,% (reduction of average COD versus 0 ppm),"7/1/99 run, 10000 ppm",5.79%
same,"COD Concentration, Average","7/1/99 run, 10000 ppm, average of 3 reactors, 0 Day",54.63 g/L
same,"COD Concentration, Average","7/1/99 run, 10000 ppm, average of 3 reactors, 7 Day",52.37 g/L
same,"COD Concentration, Average","7/1/99 run, 10000 ppm, average of 3 reactors, 1 days",49.5 g/L
same,"COD Concentration, Average","7/1/99 run, 10000 ppm, average of 3 reactors, 4 days",44.67 g/L
same,"COD Concentration, Average","7/1/99 run, 10000 ppm, average of 3 reactors, 9 days",48.4 g/L
same,"COD Concentration, Average","7/1/99 run, 10000 ppm, average of 3 reactors, 16 days",36.73 g/L
same,"COD Concentration, Average","7/1/99 run, 10000 ppm, average of 3 reactors, 24 days",39.3 g/L
same,"COD Concentration, Average","7/1/99 run, 10000 ppm, average of 3 reactors, 55 days",40.07 g/L
same,% (reduction of average COD versus 0 ppm),"7/1/99 run, 100000 ppm",−56.1%
same,"COD Concentration, Average","7/1/99 run, 100000 ppm, average of 2 reactors, 0 Day",56.7 g/L
same,"COD Concentration, Average","7/1/99 run, 100000 ppm, average of 2 reactors, 7 Day",84.7 g/L
same,"COD Concentration, Average","7/1/99 run, 100000 ppm, average of 2 reactors, 1 days",143 g/L
same,"COD Concentration, Average","7/1/99 run, 100000 ppm, average of 2 reactors, 4 days",76.3 g/L
same,"COD Concentration, Average","7/1/99 run, 100000 ppm, average of 2 reactors, 9 days",80.3 g/L
same,"COD Concentration, Average","7/1/99 run, 100000 ppm, average of 2 reactors, 16 days",62.3 g/L
same,"COD Concentration, Average","7/1/99 run, 100000 ppm, average of 2 reactors, 24 days",33.55 g/L
same,"COD Concentration, Average","7/1/99 run, 100000 ppm, average of 2 reactors, 55 days",69.35 g/L
same,COD reduction due to the formate (FIG. 2),"25 to 8,750 ppm, 0, 15 and 30 days",~10%
same,average percent range in improvement of measured COD levels,domestic sewage,≤ 12%
same,increase in COD reduction (FIG. 3),"from 0 formate up to about 5,000-7,000 ppm",about 10%
